Measured values from ChEMBL document CHEMBL1127109, “Thiol and hydroxamic acid containing inhibitors of endothelin converting enzyme” (Bioorg Med Chem Lett, 1993).
Where a SMILES comes first, the peptide text is derived from it. The star is where a group is joined. Cbz = O=C(OCc1ccccc1)*

What follows are compounds tested against T1, Endothelin-converting enzyme 1 (Homo sapiens) (UniProt P42892) (assay: Compound was tested in vitro for percent inhibition of a putative Endothelin-converting enzyme at 100 uM partially purified from rabbit lung membrane). Details: Oryctolagus cuniculus, target entry is the homologue from another species.
T1 sequence (whole entry): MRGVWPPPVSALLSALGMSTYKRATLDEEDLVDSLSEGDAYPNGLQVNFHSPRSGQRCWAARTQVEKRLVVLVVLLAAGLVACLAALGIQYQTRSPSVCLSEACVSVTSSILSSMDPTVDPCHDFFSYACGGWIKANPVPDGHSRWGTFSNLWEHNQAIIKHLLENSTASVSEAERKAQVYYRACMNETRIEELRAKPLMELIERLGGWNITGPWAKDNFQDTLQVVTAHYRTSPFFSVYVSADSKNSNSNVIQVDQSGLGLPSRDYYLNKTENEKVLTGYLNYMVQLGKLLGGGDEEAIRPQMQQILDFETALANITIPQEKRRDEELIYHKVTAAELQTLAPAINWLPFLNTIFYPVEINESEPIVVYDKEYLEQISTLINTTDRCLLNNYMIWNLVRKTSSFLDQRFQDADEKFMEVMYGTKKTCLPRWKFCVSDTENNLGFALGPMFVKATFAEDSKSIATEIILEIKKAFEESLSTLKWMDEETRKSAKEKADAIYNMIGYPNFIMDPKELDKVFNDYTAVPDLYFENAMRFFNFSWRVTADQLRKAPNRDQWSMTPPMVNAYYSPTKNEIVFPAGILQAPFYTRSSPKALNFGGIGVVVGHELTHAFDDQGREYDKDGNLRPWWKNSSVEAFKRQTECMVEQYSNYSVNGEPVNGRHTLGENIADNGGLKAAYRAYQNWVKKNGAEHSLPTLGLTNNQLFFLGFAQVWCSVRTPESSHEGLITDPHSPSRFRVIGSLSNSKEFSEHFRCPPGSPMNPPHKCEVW
Assay type: tissue-based

inhibition [%] | Compound
83 | COC(=O)[C@H](Cc1c[nH]c2ccccc12)NC(=O)[C@H](CC(C)C)NC(=O)[C@H](CS)NC(=O)OCc1ccccc1 (Cbz-Cys-Leu-Trp-OMe)
90 | O=C(N[C@@H](CS)C(=O)N[C@@H](Cc1c[nH]c2ccccc12)C(=O)O)OCc1ccccc1 (Cbz-Cys-Trp-OH)
89 | COC(=O)[C@H](CC(C)C)NC(=O)[C@H](CS)NC(=O)OCc1ccccc1
75 | CC(C)C[C@H](NC(=O)[C@H](CS)NC(=O)OCc1ccccc1)C(=O)N[C@@H](Cc1c[nH]c2ccccc12)C(=O)O (Cbz-Cys-Leu-Trp-OH)
93 | COC(=O)[C@H](Cc1c[nH]c2ccccc12)NC(=O)[C@H](CS)NC(=O)OCc1ccccc1 (Cbz-Cys-Trp-OMe)

What follows are compounds tested against T2, Thermolysin (Bacillus thermoproteolyticus, UniProt P00800) (assay: Compound was tested in vitro for inhibitory activity against thermolysin). Details: not given.
T2 sequence (P00800 whole entry): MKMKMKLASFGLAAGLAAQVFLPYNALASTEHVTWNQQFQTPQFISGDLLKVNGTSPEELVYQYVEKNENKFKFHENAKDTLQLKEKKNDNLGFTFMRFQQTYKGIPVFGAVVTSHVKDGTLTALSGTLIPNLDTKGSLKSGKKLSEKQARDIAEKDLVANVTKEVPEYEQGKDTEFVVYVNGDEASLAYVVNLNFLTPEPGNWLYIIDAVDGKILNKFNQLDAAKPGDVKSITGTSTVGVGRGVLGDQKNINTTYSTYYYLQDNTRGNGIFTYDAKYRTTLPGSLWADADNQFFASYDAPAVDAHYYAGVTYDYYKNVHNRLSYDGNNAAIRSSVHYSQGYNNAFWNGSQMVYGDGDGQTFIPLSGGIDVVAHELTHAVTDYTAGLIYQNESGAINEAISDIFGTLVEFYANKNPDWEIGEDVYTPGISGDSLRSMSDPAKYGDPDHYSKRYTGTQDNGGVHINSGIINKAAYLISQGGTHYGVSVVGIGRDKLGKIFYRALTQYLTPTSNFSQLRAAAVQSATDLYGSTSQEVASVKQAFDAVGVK

IC50 [nM] | Compound
64 | CC(C)C[C@H](C(=O)NO)C(=O)N[C@@H](C)C(=O)NCC(N)=O
